Experimental data taken from US20110319362A1, “STAT3 LIGANDS AND THERAPEUTIC USES THEREOF” (priority 2008, published 2011).
Read-outs that look alike come from different tables or passages of the source.

Key:
[1] = tested on: MDA-MB-468 cancer cell line; assay: Cell growth assay (WST-8); format: cell-based; conditions: Homo sapiens, MDA-MB-468, 96 h; WST-8, 4 days; read-out: Inhibition of cell growth IC50, MDA-MB-468 cancer cell line
Summary of the method: (§1)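 Cells (3000–4000/well) grown 4 days with varied compound concentrations, then WST-8 dye added for 1–3 h and absorbance read at 450 nm. Growth inhibition expressed as sample-to-control absorbance ratio.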

[2] = tested on: MDA-MB-231 cancer cell line; assay: Cell growth assay (WST-8); format: cell-based; conditions: Homo sapiens, MDA-MB-231, 96 h; WST-8, 4 days; read-out: Inhibition of cell growth IC50, MDA-MB-231 cancer cell line
Summary of the method: as §1

STAT3 protein = target: T1, STAT3 protein (Homo sapiens, UniProt P40763); assay: In vitro competitive STAT3 binding assay (fluorescence polarization)
T1 construct: human STAT3 protein (residues 122-722) fused to His-tag; His-tag
Summary of the method: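 FP competition: His-tagged human STAT3 (122-722), 150 nM, with 5 nM 5-Fam-labelled pYLPQTV phosphopeptide tracer (STT2) and titrated inhibitor, read after 2-3 h. IC50 = concentration displacing 50% of tracer, by nonlinear least-squares fit.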

[3] = FP competitive binding, fluorescently tagged STT2 peptide tracer, read-out: Binding affinities to STAT3 IC50

T1 sequence (P40763 122-722): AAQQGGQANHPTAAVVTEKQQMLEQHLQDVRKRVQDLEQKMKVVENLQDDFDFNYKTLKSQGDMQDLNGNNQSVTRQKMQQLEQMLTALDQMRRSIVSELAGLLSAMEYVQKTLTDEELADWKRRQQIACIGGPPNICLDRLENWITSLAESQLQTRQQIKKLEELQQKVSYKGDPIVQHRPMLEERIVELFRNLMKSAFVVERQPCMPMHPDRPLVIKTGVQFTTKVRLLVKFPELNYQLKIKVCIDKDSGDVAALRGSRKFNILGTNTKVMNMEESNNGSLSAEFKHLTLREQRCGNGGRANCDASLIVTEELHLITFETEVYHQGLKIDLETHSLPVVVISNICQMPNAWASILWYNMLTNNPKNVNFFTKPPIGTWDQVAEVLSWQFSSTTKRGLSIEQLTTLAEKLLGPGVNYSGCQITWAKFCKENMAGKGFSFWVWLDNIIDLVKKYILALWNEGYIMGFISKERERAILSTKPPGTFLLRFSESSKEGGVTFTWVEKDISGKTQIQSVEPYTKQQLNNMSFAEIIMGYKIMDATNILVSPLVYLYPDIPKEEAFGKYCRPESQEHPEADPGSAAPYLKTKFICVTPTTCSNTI

Structure (SMILES) | IC50 [1] [µM] | IC50 [2] [µM] | IC50 (STAT3 protein; [3]) [µM] | IC50 (STAT3 protein) [µM]
CN(C)C(=O)CCCNC(=O)[C@@H]1CC[C@@H]2CCCC[C@H](NC(=O)[C@H](Cc3ccc(OP(=O)(O)O)cc3)NC(=O)OCc3ccccc3)C(=O)N21 [Example 18] | > 100 | > 100 | < 30 | 
CNCCCNC(=O)[C@@H]1CC[C@@H]2CCCC[C@H](NC(=O)[C@H](Cc3ccc(OP(=O)(O)O)cc3)NC(=O)OCc3ccccc3)C(=O)N21 [Example 19] | > 100 | > 100 | < 100 | 
NCCC[C@H](NC(=O)[C@@H]1CC[C@@H]2CCCC[C@H](NC(=O)[C@H](Cc3ccc(OP(=O)(O)O)cc3)NC(=O)OCc3ccccc3)C(=O)N21)C(=O)NCc1ccccc1 [Example 20] | > 100 | > 50 |  | < 10
CNC(=O)[C@H](CCCN)NC(=O)[C@@H]1CC[C@@H]2CCCC[C@H](NC(=O)[C@H](Cc3ccc(OP(=O)(O)O)cc3)NC(=O)OCc3ccccc3)C(=O)N21 [Example 21] | > 100 | > 100 |  | < 10
O=C(N[C@@H](Cc1ccc(OP(=O)(O)O)cc1)C(=O)N[C@H]1CCCC[C@H]2CC[C@@H](C(=O)N[C@@H](Cc3c[nH]cn3)C(=O)NCc3ccccc3)N2C1=O)OCc1ccccc1 [Example 22] | > 100 | > 50 |  | < 10
NC(=O)CC[C@H](NC(=O)[C@@H]1CC[C@@H]2CCCC[C@H](NC(=O)CCc3ccc(O)c(C(=O)O)c3)C(=O)N21)C(=O)NCc1ccccc1 [Example 24] | > 100 | > 100 | > 100 | 
NC(=O)CC[C@H](NC(=O)[C@@H]1CC[C@@H]2CCCC[C@H](NC(=O)CCc3ccc(CP(=O)(O)O)cc3)C(=O)N21)C(=O)NCc1ccccc1 [Example 25] | > 100 | > 100 | > 100 | 
N[C@@H](Cc1ccc(CP(=O)(O)O)cc1)C(=O)N[C@H]1CCCC[C@H]2CC[C@@H](C(=O)N[C@@H](Cc3c[nH]cn3)C(=O)NCc3ccccc3)N2C1=O [Example 26] | > 100 | > 100 | > 10 | 
NC(=O)CC[C@H](NC(=O)[C@@H]1CC[C@@H]2CCCC[C@H](NC(=O)[C@@H](N)Cc3ccc(CP(=O)(O)O)cc3)C(=O)N21)C(=O)NCc1ccccc1 [Example 29] | > 100 | > 100 |  | < 30
CC(=O)N[C@@H](Cc1ccc(CP(=O)(O)O)cc1)C(=O)N[C@H]1CCCC[C@H]2CC[C@@H](C(=O)N[C@@H](CCC(N)=O)C(=O)NCc3ccccc3)N2C1=O [Example 30] | > 100 | > 100 |  | < 30
CCCCCCCCCCCCCCCC(=O)N[C@@H](Cc1ccc(OP(=O)(O)O)cc1)C(=O)NC1CCCC[C@H]2CC[C@@H](C(=O)N[C@@H](CCC(N)=O)C(=O)NCc3ccccc3)N2C1=O (stereo partly drawn) [Example 37] | < 50 | < 50 |  | < 10
CCCCCCCCCCCCCCCC(=O)N[C@@H](Cc1ccc(OP(=O)(O)O)cc1)C(=O)NC1CCCC[C@H]2CC[C@@H](C(=O)N[C@@H](Cc3c[nH]cn3)C(=O)NCc3ccccc3)N2C1=O (stereo partly drawn) [Example 38] | < 60 | < 50 |  | < 100
NC(=O)CC[C@H](NC(=O)[C@@H]1CCC2CCCC[C@H](NC(=O)/C=C/c3ccc(OP(=O)(O)O)cc3)C(=O)N21)C(=O)NCc1ccccc1 (stereo partly drawn) [Example 56] | > 100 | > 100 |  | < 1
NC(=O)CC[C@H](NC(=O)[C@@H]1CCC2CCCC[C@H](NC(=O)c3cc4cc(OP(=O)(O)O)ccc4[nH]3)C(=O)N21)C(=O)NCc1ccccc1 (stereo partly drawn) [Example 57] | > 100 | > 100 |  | < 1
NC(=O)CC[C@H](NC(=O)[C@@H]1CCC2CCCC[C@H](NC(=O)c3cc4cc(CP(=O)(O)O)ccc4[nH]3)C(=O)N21)C(=O)NCc1ccccc1 (stereo partly drawn) [Example 58] | > 100 | > 100 |  | < 10
